# Test results from US20250059174A1, “Pharmaceutical Compounds and Compositions as C-Kit Kinase Inhibitors” (Enanta Pharmaceuticals, Inc., priority 2023, published 2025).
# pEC50, pIC50: −log10 of the molar value.
# Tests used:
# [1] = biological target: Recombinant human c-KIT kinase (Homo sapiens (Human), UniProt P10721); assay: c-KIT kinase chemiluminescence assay (ADP-Glo); format: biochemical; settings: ATP 50 μM
# Experimental: The c-KIT Kinase Enzyme System (V4498) and ADP-Glo™ Kinase Assay kit (V6930) were purchased from Promega (Madison, WI). DMSO (D2650) was purchased from Sigma-Aldrich (Burlington, MA).
# Kinase Reaction: The kinase assay was based on the recommended protocol by c-KIT Kinase Enzyme System from Promega. Recombinant human c-KIT kinase in 3 μL of assay buffer (40 mM Tris pH 7.5, 20 mM MgCl2, 0.1 mg/mL BSA and 50 μM DTT) was added to the test or high control wells and 3 μL of assay buffer was added to the low control wells. The microplate was centrifuged at 800 rotations per minute (rpm) for 60 s and incubated at room temperature (RT) for 30 min. Next, 2 μL of buffered ATP and polyEY substrate solution was added to all wells. The microplate was centrifuged at 800 rpm for 60 s and incubated at RT for 2 h.
# ADP detection with ADP-Glo™ Kinase Assay: After the kinase reaction incubation, 5 μL of ADP-Glo™ reagent was added to all wells. The microplate was centrifuged at 800 rpm for 60 s and incubated at RT for 40 min. Ten microliter (10 μL) of Kinase Detection Reagent (Luciferin-Luciferase system) was then added to all wells. The microplate was centrifuged at 800 rpm for 60 s and incubated at RT for 60 min. Kinase activity was measured as increase in luminescence at RT in an Envision plate reader equipped with 560 nm filters and operating in endpoint mode. Data Analysis: Endpoint chemiluminescence from high and low control wells were used to calculate normalized c-KIT activity at various concentrations of test compounds. The normalized activities were fitted to inhibitor-versus-normalized response fit in GraphPad Prism 7 to determine half-maximal inhibitory concentration (IC50) and hill coefficient values (H).
# Where I is the inhibitor concentration and H is the Hill coefficient.
# M-07e cells = assay: M-07e cellular assay (SCF-mediated cell proliferation); format: cell-based; settings: Homo sapiens, 72 hours, CellTiter Glo
# Experimental: M-07e cells (Creative Bioarray, CSC-C0249) which endogenously express human c-KIT were used to evaluate the effect of compounds on stem cell factor (SCF)-mediated cell proliferation. M-07e cells were cultured in growth media (RPMI+10% FBS+1% penicillin/streptomycin+10 ng/mL GM-CSF) at 5E5-1.5E6 cells/mL, replenishing media every 3-4 days. 1.5E4 cells were seeded per well in 384 well tissue culture treated plates in 20 μL assay media (RPMI+[…]+1% penicillin/streptomycin) without growth factor stimulation and incubated at 37° C. in a CO2 humidity-controlled incubator. Twenty-four hours later, three-fold serially diluted test compounds in media containing SCF (at the previously determined EC90) were added to the plated M-07e cells and incubated for an additional 72 hours. Cell viability was determined by adding 25 μL CellTiter Glo (Promega) to the cells and the luminescence was measured using a Perkin Elmer Envision plate reader. The EC50 was determined using GraphPad Prism. Percent cell growth was determined after normalizing the curve to the mean RLU high control (no compound control wells) at 100% and the mean RLU low control (no SCF control wells) at 0%.
# Sequence of Recombinant human c-KIT kinase (P10721 26-976): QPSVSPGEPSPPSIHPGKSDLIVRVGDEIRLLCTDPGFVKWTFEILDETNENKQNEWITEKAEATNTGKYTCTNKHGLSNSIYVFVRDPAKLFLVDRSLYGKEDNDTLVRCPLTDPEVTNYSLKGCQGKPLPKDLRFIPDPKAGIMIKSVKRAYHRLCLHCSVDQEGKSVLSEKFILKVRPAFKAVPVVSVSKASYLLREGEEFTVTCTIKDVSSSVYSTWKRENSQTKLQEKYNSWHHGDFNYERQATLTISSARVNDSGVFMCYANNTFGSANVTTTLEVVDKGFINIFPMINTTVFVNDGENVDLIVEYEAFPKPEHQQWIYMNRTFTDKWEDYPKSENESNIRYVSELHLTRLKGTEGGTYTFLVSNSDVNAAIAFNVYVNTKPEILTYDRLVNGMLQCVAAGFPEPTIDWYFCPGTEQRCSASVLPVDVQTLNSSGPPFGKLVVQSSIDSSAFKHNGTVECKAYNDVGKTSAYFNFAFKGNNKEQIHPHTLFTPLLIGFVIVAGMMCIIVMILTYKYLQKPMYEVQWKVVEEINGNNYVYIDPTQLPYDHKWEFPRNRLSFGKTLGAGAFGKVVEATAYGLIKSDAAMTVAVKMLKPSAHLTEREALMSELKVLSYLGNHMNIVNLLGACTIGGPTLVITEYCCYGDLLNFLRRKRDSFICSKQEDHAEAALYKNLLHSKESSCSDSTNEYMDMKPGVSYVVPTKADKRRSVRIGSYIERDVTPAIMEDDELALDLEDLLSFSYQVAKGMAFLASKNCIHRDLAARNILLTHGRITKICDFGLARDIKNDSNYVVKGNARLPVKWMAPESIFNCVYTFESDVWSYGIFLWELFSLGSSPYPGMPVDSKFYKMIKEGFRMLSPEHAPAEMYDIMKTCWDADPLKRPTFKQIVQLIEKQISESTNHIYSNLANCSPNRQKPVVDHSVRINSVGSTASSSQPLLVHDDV
Structure (SMILES),pIC50 [1],pEC50 (M-07e cells)
Cc1ccc(-c2noc(C3CN(C(=O)C4(F)CC4)C3)n2)cc1NC(=O)c1cnn2ccc(N3CC4(COC4)C3)cc12 [Example 281-33],6.00 to 7.00,6.00 to 7.00
Cc1cc(F)c(-c2noc([C@H]3C[C@@H]3F)n2)cc1NC(=O)c1cnn2ccc(N3CC4(C3)CC(O)(C(F)F)C4)cc12 [Example 281-18],> 7.00,> 7.00
Cc1ccc(-c2ncc(C(C)C)cn2)cc1NC(=O)c1cnn2ccc(N3CC4(COC4)C3)cc12 [Example 345],> 7.00,> 7.00
Cc1ccc(-c2noc([C@H]3C[C@@H]3F)n2)cc1NC(=O)c1cnn2ccc(N3CC4(CCN(CC(F)(F)F)C4)C3)cc12 [Example 188],6.00 to 7.00,6.00 to 7.00
Cc1ccc(-c2noc(C3CC4(C3)CN(C(=O)[C@H]3C[C@@H]3F)C4)n2)cc1NC(=O)c1cnn2ccc(N3CC4(C3)CC(O)(C(F)F)C4)cc12 [Example 281-107],6.00 to 7.00,6.00 to 7.00
Cc1ccc(-c2noc([C@H]3C[C@@H]3F)n2)cc1NC(=O)c1cnn2cc(-c3c(C)nn(CC(C)(C)O)c3C)ccc12 [Example 144],> 7.00,> 7.00
O=C(Nc1cc(-c2noc([C@H]3C[C@@H](C(F)(F)F)C3)n2)ccc1Cl)c1cnn2ccc(N3CC4(C3)CC(O)(C(F)F)C4)cc12 [Example 281-27],> 7.00,> 7.00
CO[C@H]1C[C@H](c2nc(-c3ccc(C)c(NC(=O)c4cnn5ccc(N6CC7(COC7)C6)cc45)c3)no2)C1 [Example 274],6.00 to 7.00,> 7.00
Cc1ncc(-c2nnn(C3CN(C(=O)OC(C)(C)C)C3)n2)cc1NC(=O)c1cnn2ccc(N3CC4(C3)CC(O)(C(F)F)C4)cc12 [Example 312-9],< 6.00,6.00 to 7.00
Cc1ncc(-c2noc(C3CN(CC(F)(F)F)C3)n2)cc1NC(=O)c1cnn2ccc(N3CC4(C3)CC(O)(C(F)F)C4)cc12 [Example 281-88],6.00 to 7.00,> 7.00
Cc1ncc(-c2ncc(C3CC3)cn2)cc1NC(=O)c1cnn2ccc(N3CC4(C3)CC(O)(C(F)F)C4)cc12 [Example 317],6.00 to 7.00,> 7.00
Cc1ccc(-c2noc([C@H]3C[C@@H]3F)n2)cc1NC(=O)c1cnn2ccc(-c3c(C)nc(N4CCC4)nc3C)cc12 [Example 171-12],6.00 to 7.00,6.00 to 7.00
Cc1ncc(-c2noc(N3CC(F)(F)C3)n2)cc1NC(=O)c1cnn2ccc(N3CC4(C3)CC(O)(C(F)F)C4)cc12 [Example 281-121],6.00 to 7.00,> 7.00
COC(=O)N1CC(F)(c2nc(-c3cnc(C)c(NC(=O)c4cnn5ccc(N6CC7(C6)CC(O)(C(F)F)C7)cc45)c3)no2)C1 [Example 281-104],< 6.00,< 6.00
Cc1ccc(-c2noc([C@H]3C[C@@H]3F)n2)cc1NC(=O)c1cnn2ccc(NCC3(C(=O)OC(C)(C)C)COC3)cc12 [Example 241-9],6.00 to 7.00,6.00 to 7.00
Cc1ncc(-c2noc(C3CN(C(=O)OC(C)(C)C)C3)n2)cc1NC(=O)c1cnn2ccc(N3CC4(C3)CC(O)(C(F)F)C4)cc12 [Example 281-90],< 6.00,6.00 to 7.00
Cc1sc(-c2noc(C3CN(C(=O)OC(C)(C)C)C3)n2)cc1NC(=O)c1cnn2ccc(N3CC4(C3)CC(O)(C(F)F)C4)cc12 [Example 281-115],< 6.00,< 6.00
O=C(Nc1cc(-c2noc([C@H]3C[C@@H](OC(F)(F)F)C3)n2)ccc1Cl)c1cnn2ccc(N3CC4(COC4)C3)cc12 [Example 264],> 7.00,> 7.00
Cc1ccc(-c2noc(C3CN(C(=O)OCc4ccccc4)C3)n2)cc1NC(=O)c1cnc(-c2ccc3c(c2)CC(=O)N3)o1 [Example 308-60],< 6.00,< 6.00
Cc1ccc(-c2noc(N3CC(F)(F)C3)n2)cc1NC(=O)c1cnn2ccc(N3CC4(C3)CC(O)(C(F)F)C4)cc12 [Example 281-98],> 7.00,> 7.00
Cc1ncc(-c2noc([C@H]3CC34CC4)n2)cc1NC(=O)c1cnn2ccc(N3CC4(C3)CC(O)(C(F)F)C4)cc12 [Example 281-16],> 7.00,> 7.00
Cc1ncc(-c2noc(C3(F)CN(CC(F)F)C3)n2)cc1NC(=O)c1cnn2ccc(N3CC4(C3)CC(O)(C(F)F)C4)cc12 [Example 281-105],6.00 to 7.00,6.00 to 7.00
O=C(Nc1cc(-c2ccc(C3CC3)cn2)ccc1Cl)c1cnn2ccc(N3CC4(COC4)C3)cc12 [Example 350],< 6.00,< 6.00
COC(=O)N1CC(Cc2nc(-c3ccc(C)c(NC(=O)c4cnn5ccc(N6CC7(COC7)C6)cc45)c3)no2)C1 [Example 281-29],6.00 to 7.00,6.00 to 7.00
Cc1ncc(-c2noc([C@H]3CN(C(=O)C(C)(F)F)[C@@H]3C)n2)cc1NC(=O)c1cnn2ccc(N3CC4(C3)CC(O)(C(F)F)C4)cc12 [Example 281-10],6.00 to 7.00,6.00 to 7.00
Cc1cc(F)c(-c2noc([C@H]3C[C@@H]3C(F)F)n2)cc1NC(=O)c1cnn2ccc(N3CC4(COC4)C3)cc12 [Example 281-59],> 7.00,6.00 to 7.00
Cc1ncc(-c2noc(C3CN(CC(F)F)C3)n2)cc1NC(=O)c1cnn2ccc(N3CC4(C3)CC(O)(C(F)F)C4)cc12 [Example 281-130],6.00 to 7.00,6.00 to 7.00

# Second part, led by results:
pIC50 [1],Structure (SMILES),pEC50 (M-07e cells)
> 7.00,Cc1ccc(-c2noc([C@H]3C[C@@H]3F)n2)cc1NC(=O)c1cnn2cc(N3CC4(COC4)C3)ccc12 [Example 54],> 7.00
< 6.00,Cc1ccc(-c2noc([C@H]3C[C@@H]3F)n2)cc1NC(=O)c1cnn2cc(C#N)ccc12 [Example 128],6.00 to 7.00
< 6.00,Cc1ccc(-c2noc([C@H]3C[C@@H]3F)n2)cc1NC(=O)c1coc2ccccc12 [Example 39],< 6.00
> 7.00,Cc1ccc(-c2noc([C@H]3C[C@@H]3F)n2)cc1NC(=O)c1cnc(-c2cccc3[nH]ccc23)o1 [Example 308-29],6.00 to 7.00
< 6.00,Cc1ccc(-c2noc([C@H]3C[C@@H]3F)n2)cc1NC(=O)c1cnc(-c2cccc(N)n2)o1 [Example 305],< 6.00
6.00 to 7.00,Cc1ccc(-c2noc([C@H]3C[C@@H]3F)n2)cc1NC(=O)c1cnn2cc(-c3cncnc3)ccc12 [Example 155],6.00 to 7.00
> 7.00,Cc1ccc(-c2noc([C@H]3C[C@@H]3F)n2)cc1NC(=O)c1cnn2ccc(N3CC[C@H](N)C3)cc12 [Example 198],6.00 to 7.00
6.00 to 7.00,Cc1ncc(-c2ccc3c(C(=O)Nc4cc(-c5noc([C@H]6C[C@@H]6F)n5)ccc4C)cnn3c2)c(C)n1 [Example 169],6.00 to 7.00
> 7.00,Cc1ccc(-c2noc([C@H]3C[C@@H]3F)n2)cc1NC(=O)c1cnn2ccc(N3CCC4(C3)CC4(F)F)cc12 (some centres unmarked) [Example 216],> 7.00
< 6.00,Cc1ccc(-c2noc([C@H]3C[C@@H]3F)n2)cc1NC(=O)c1cnc2n1C(Cc1ccccc1)c1ccccc1-2 (some centres unmarked) [Example 104],< 6.00
6.00 to 7.00,Cc1ccc(-c2noc([C@H]3C[C@@H]3F)n2)cc1NC(=O)c1cnn2ccc(N3CC(F)(C(F)(F)F)C3)cc12 [Example 223],6.00 to 7.00
> 7.00,Cc1ccc(-c2noc([C@H]3C[C@@H]3F)n2)cc1NC(=O)c1cnc(-c2cccc3cn[nH]c23)o1 [Example 308-23],< 6.00
> 7.00,Cc1ccc(-c2noc([C@H]3C[C@@H]3F)n2)cc1NC(=O)c1cnn2ccc(N3CC(F)(F)C3)cc12 [Example 222],6.00 to 7.00
> 7.00,Cc1ccc(-c2noc([C@H]3C[C@@H]3F)n2)cc1NC(=O)c1cnn2ccc(-c3ccc(N)nc3C)cc12 [Example 171-29],> 7.00
6.00 to 7.00,Cc1ccc(-c2noc([C@H]3C[C@@H]3F)n2)cc1NC(=O)c1cnc(-c2ccc3c(c2)CC(=O)N3C)o1 [Example 308-55],6.00 to 7.00
6.00 to 7.00,Cc1ccc(-c2noc([C@H]3C[C@@H]3F)n2)cc1NC(=O)c1cnc(-c2ccccc2)n1C [Example 14],< 6.00
